Values quoted from earlier work, collected in patent US11446277B2, “Penetrating pain relief cream” (priority 2019, dated 2022).

Columns and labels:
[1] = test system: aggressive human breast cancer cells; conditions: in vitro

For `C=C(C)[C@@H]1CCC(C)=C[C@H]1c1c(O)cc(CCCCC)cc1O` [CBD, Cannabidiol], the growth of bacteria (bacteria) is listed as “inhibit the growth of bacteria”, the analgesic properties (animal studies) is listed as “analgesic properties” and the anti-inflammatory activity (animal studies) is listed as “anti-inflammatory activity”. For the same molecule, the sedation (animal tests) was “sedative effects”, the “growth of aggressive human breast cancer cells” value [1] was “reduce growth” and the “invasiveness of aggressive human breast cancer cells” value [1] was “reduce their invasiveness”.
